Earlier results as cited in patent US10973875B2, “Medical agents and uses thereof” (LOKON PHARMA AB, priority 2014, dated 2021).

Details: patients treated with gemcitabine

For `Nc1ccn([C@@H]2O[C@H](CO)[C@@H](O)C2(F)F)c(=O)n1` [gemcitabine], the “levels of TGF, Tregs and MDSCs” value is given as “significantly lower levels”.
